Reference: US11596639B2, “Substituted indole Mcl-1 inhibitors” (Vanderbilt University, priority 2016, dated 2023)
Read-outs that look alike come from different tables or passages of the source.

How the values were obtained:
[1] = biological target: Mcl-1 (Homo sapiens (Human), UniProt Q07820); assay: Fluorescence polarization anisotropy (FPA) competition assay, FITC-Bak or FITC-Bim BH3 peptide; assay type: binding; details: read-out: Ki for Inhibition of Mcl-1 by FPA assay
[2] = test system: H929 human cancer cell lines; assay: Cellular viability / proliferation (Cell TiterGlo, 72 h); assay type: cell-based
Procedure, shortened: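 Cells were seeded at 1,000 cells/well in medium with 10% FBS and dosed 24 h later with a 2-fold serial dilution of compound (top concentration 50 μM, final DMSO <1%).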

[3] = Homo sapiens, NCI-H929, 72 h, read-out: GI50 on cellular proliferation of H929 human cancer cell lines, H929 cells, 72 h, Cell TiterGlo, 10% FBS

Sequence of Mcl-1 (Q07820 172-327): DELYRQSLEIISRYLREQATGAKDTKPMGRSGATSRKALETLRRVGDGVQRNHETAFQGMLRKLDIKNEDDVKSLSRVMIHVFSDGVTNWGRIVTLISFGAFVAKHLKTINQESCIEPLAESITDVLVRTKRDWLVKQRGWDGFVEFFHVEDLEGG

Structure (SMILES)	Ki [1] [nM]	GI50 [2, 3] [nM]	GI50 ([2]; read-out: GI50 on cellular proliferation of H929 human cancer cell lines, H929 cells, 72 h, Cell TiterGlo, 10% FBS) [nM]
Cc1cc(OCCCc2c3n(c4c(-c5c(C)nn(C)c5C)c(Cl)ccc24)[C@H](C)CN(c2cn(C)c4ccc(-c5noc(=O)[nH]5)cc24)C3=O)cc(C)c1Cl [Example 442, (R)-3-(3-(7-Chloro-10-(3-(4-chloro-3,5-dimethylphenoxy)propyl)-4-methyl-1-oxo-6-(1,3,5-trimethyl-1H-pyrazol-4-yl)-3,4-dihydropyrazino[1,2-a]indol-2(1H)-yl)-1-methyl-1H-indol-5-yl)-1,2,4-oxadiazol-5(4H)-one]	2.3	230	
Cc1cc(OCCCc2c3n(c4c(-c5c(C)nn(C)c5C)c(Cl)ccc24)[C@H](C)CN(c2cccc4cc(C(=O)O)n(Cc5ccncc5)c24)C3=O)cc(C)c1Cl [Example 248, 7-[(4R)-7-chloro-10-[3-(4-chloro-3,5-dimethyl-phenoxy)propyl]-4-methyl-1-oxo-6-(1,3,5-trimethylpyrazol-4-yl)-3,4-dihydropyrazino[1,2-a]indol-2-yl]-1-(4-pyridylmethyl)indole-2-carboxylic acid]	< 1	570	
COCCn1cc(N2C[C@@H](C)n3c(c(CCCOc4cc(C)c(Cl)c(C)c4)c4ccc(Cl)c(-c5c(C)nn(C)c5C)c43)C2=O)c2cc(C(=O)O)ccc21 [Example 268, (R)-3-(7-chloro-10-(3-(4-chloro-3,5-dimethylphenoxy)propyl)-4-methyl-1-oxo-6-(1,3,5-trimethyl-1H-pyrazol-4-yl)-3,4-dihydropyrazino[1,2-a]indol-2(1H)-yl)-1-(2-methoxyethyl)-1H-indole-5-carboxylic acid]	< 1	410	
Cc1cc(OCCCc2c3n(c4c(-c5c(C)nn(CCN(C)C)c5C)c(Cl)ccc24)[C@H](C)CN(c2cn(C)c4cc(C(=O)O)ccc24)C3=O)cc(C)c1Cl [Example 309, (R)-3-(7-chloro-10-(3-(4-chloro-3,5-dimethylphenoxy)propyl)-6-(1-(2-(dimethylamino)ethyl)-3,5-dimethyl-1H-pyrazol-4-yl)-4-methyl-1-oxo-3,4-dihydropyrazino[1,2-a]indol-2(1H)-yl)-1-methyl-1H-indole-6-carboxylic acid]	< 1	530	
Cc1cc(OCCCc2c3n(c4c(-c5c(C)nn(C)c5C)c(Cl)ccc24)[C@H](C)[C@@H](C)NC3=O)cc(C)c1Cl [Example 140, (3R,4R)-7-chloro-10-(3-(4-chloro-3,5-dimethylphenoxy)propyl)-3,4-dimethyl-6-(1,3,5-trimethyl-1H-pyrazol-4-yl)-3,4-dihydropyrazino[1,2-a]indol-1(2H)-one]	79	7600	
Cc1cc(OCCCc2c3n(c4c(-c5c(C)nn(C)c5C)c(Cl)ccc24)[C@H](C)CN(c2cccc4c(C(=O)O)cn(C)c24)C3=O)cc(C)c1Cl [Example 69, (R)-7-(7-Chloro-10-(3-(4-chloro-3,5-dimethylphenoxy)propyl)-4-methyl-1-oxo-6-(1,3,5-trimethyl-1H-pyrazol-4-yl)-3,4-dihydropyrazino[1,2-a]indol-2(1H)-yl)-1-methyl-1H-indole-3-carboxylic acid]	< 1		< 200
Cc1cc(OCCCc2c3n(c4c(-c5c(C)nn(C)c5C)c(Cl)ccc24)[C@H](C)CN(c2cn(C)c4ccc(-c5nnn[nH]5)cc24)C3=O)cc(C)c1Cl [Example 251, (R)-7-Chloro-10-(3-(4-chloro-3,5-dimethylphenoxy)propyl)-4-methyl-2-(1-methyl-5-(1H-tetrazol-5-yl)-1H-indol-3-yl)-6-(1,3,5-trimethyl-1H-pyrazol-4-yl)-3,4-dihydropyrazino[1,2-a]indol-1(2H)-one]	< 1	250	
Cc1cc(OCCCc2c3n(c4c(-c5c(C)nn(C)c5C)c(Cl)ccc24)[C@H](C)[C@@H](C)N(c2cccc(C(=O)O)c2)C3=O)cc(C)c1Cl [Example 141, 3-((3R,4R)-7-chloro-10-(3-(4-chloro-3,5-dimethylphenoxy)propyl)-3,4-dimethyl-1-oxo-6-(1,3,5-trimethyl-1H-pyrazol-4-yl)-3,4-dihydropyrazino[1,2-a]indol-2(1H)-yl)benzoic acid]	4.5	9500	
Cc1cc(OCCCc2c3n(c4c(-c5c(C)ncnc5C)c(Cl)ccc24)[C@H](C)CN(c2cn(C)c4cc(C(=O)O)ccc24)C3=O)cc(C)c1Cl [Example 153, 3-[(4R)-7-chloro-10-[3-(4-chloro-3,5-dimethyl-phenoxy)propyl]-6-(4,6-dimethylpyrimidin-5-yl)-4-methyl-1-oxo-3,4-dihydropyrazino[1,2-a]indol-2-yl]-1-methyl-indole-6-carboxylic acid]	< 1	410	
Cc1cc(OCCCc2c3n(c4c(-c5c(C)nn(C)c5C)c(Cl)ccc24)CCCN(c2cc(C(=O)O)c4ncn(C)c4c2)C3=O)cc(C)c1Cl [Example 7, 6-[8-chloro-11-[3-(4-chloro-3,5-dimethyl-phenoxy)propyl]-1-oxo-7-(1,3,5-trimethylpyrazol-4-yl)-4,5-dihydro-3H-[1,4]diazepino[1,2-a]indol-2-yl]-1-methyl-benzimidazole-4-carboxylic acid]	2.2	13000	
Cc1cc(OCCCc2c3n(c4c(-c5c(C)nn(C)c5C)c(Cl)ccc24)[C@H](C)CN(c2nn(CCN4CCOCC4)c4cc(C(=O)O)ccc24)C3=O)cc(C)c1Cl [Example 50, (R)-3-(7-chloro-10-(3-(4-chloro-3,5-dimethylphenoxy)propyl)-4-methyl-1-oxo-6-(1,3,5-trimethyl-1H-pyrazol-4-yl)-3,4-dihydropyrazino[1,2-a]indol-2(1H)-yl)-1-(2-morpholinoethyl)-1H-indazole-6-carboxylic acid]	< 1	710	
Cc1cc(N2C[C@@H](C)n3c(c(CCCOc4cc(C)c(Cl)c(C)c4)c4ccc(Cl)c(-c5c(C)nn(C)c5C)c43)C2=O)c2c(c1)cc(C(=O)O)n2Cc1cccc(C)n1 [Example 457, (R)-7-(7-Chloro-10-(3-(4-chloro-3,5-dimethylphenoxy)propyl)-4-methyl-1-oxo-6-(1,3,5-trimethyl-1H-pyrazol-4-yl)-3,4-dihydropyrazino[1,2-a]indol-2(1H)-yl)-5-methyl-1-((6-methylpyridin-2-yl)methyl)-1H-indole-2-carboxylic acid]	< 1	< 200	
Cc1cc(OCCCc2c3n(c4c(-c5c(C)nn(C)c5C)c(Cl)ccc24)[C@H](C)CN(c2cc(C(C)C)cc4cc(C(=O)O)n(C)c24)C3=O)cc(C)c1Cl [Example 356, (R)-7-(7-Chloro-10-(3-(4-chloro-3,5-dimethylphenoxy)propyl)-4-methyl-1-oxo-6-(1,3,5-trimethyl-1H-pyrazol-4-yl)-3,4-dihydropyrazino[1,2-a]indol-2(1H)-yl)-5-isopropyl-1-methyl-1H-indole-2-carboxylic acid]	1.9	650	
Cc1cc(N2C[C@@H](C)n3c(c(CCCOc4cc(C)c(Cl)c(C)c4)c4ccc(Cl)c(-c5c(C)ncnc5C)c43)C2=O)c2c(c1)cc(C(N)=O)n2C [Example 376, (R)-7-(7-Chloro-10-(3-(4-chloro-3,5-dimethylphenoxy)propyl)-6-(4,6-dimethylpyrimidin-5-yl)-4-methyl-1-oxo-3,4-dihydropyrazino[1,2-a]indol-2(1H)-yl)-1,5-dimethyl-1H-indole-2-carboxamide]	6.5	750	
